In PubChem BioAssay (NCI):
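The compound was tested at five concentrations on cells cultured in 96-well plates, with a 48-hour exposure period. At the TGI there is no net growth.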

Columns and labels:
Assay in all cases: NCI-60 cell line screen, 48 h
786-0 renal = test system: 786-0 renal
A549 NSCLC = test system: A549 NSCLC
ACHN renal = test system: ACHN renal
BT-549 breast = test system: BT-549 breast
CAKI-1 renal = test system: CAKI-1 renal
COLO 205 colon = test system: COLO 205 colon
DU-145 prostate = test system: DU-145 prostate
EKVX NSCLC = test system: EKVX NSCLC
HCC-2998 colon = test system: HCC-2998 colon
HCT-15 colon = test system: HCT-15 colon
HOP-62 NSCLC = test system: HOP-62 NSCLC
HS 578T breast = test system: HS 578T breast
HT29 colon = test system: HT29 colon
IGROV1 ovarian = test system: IGROV1 ovarian
K-562 leukemia = test system: K-562 leukemia
KM12 colon = test system: KM12 colon
M14 melanoma = test system: M14 melanoma
MALME-3M melanoma = test system: MALME-3M melanoma
MCF7 breast = test system: MCF7 breast
MDA-MB-231 breast = test system: MDA-MB-231 breast
MDA-MB-435 = test system: MDA-MB-435
MDA-N = test system: MDA-N
MOLT-4 leukemia = test system: MOLT-4 leukemia
NCI-H226 lung = test system: NCI-H226 lung
NCI-H23 lung = test system: NCI-H23 lung
NCI-H460 lung = test system: NCI-H460 lung
NCI-H522 lung = test system: NCI-H522 lung
NCI/ADR-RES ovarian = test system: NCI/ADR-RES ovarian
OVCAR-3 ovarian = test system: OVCAR-3 ovarian
OVCAR-5 ovarian = test system: OVCAR-5 ovarian
OVCAR-8 ovarian = test system: OVCAR-8 ovarian
PC-3 prostate = test system: PC-3 prostate
RPMI-8226 leukemia = test system: RPMI-8226 leukemia
RXF 393 renal = test system: RXF 393 renal
SF-268 CNS = test system: SF-268 CNS
SF-295 CNS = test system: SF-295 CNS
SF-539 CNS = test system: SF-539 CNS
SK-MEL-2 melanoma = test system: SK-MEL-2 melanoma
SK-MEL-28 melanoma = test system: SK-MEL-28 melanoma
SK-MEL-5 melanoma = test system: SK-MEL-5 melanoma
SK-OV-3 ovarian = test system: SK-OV-3 ovarian
SN12C renal = test system: SN12C renal
SNB-19 CNS = test system: SNB-19 CNS
SNB-75 CNS = test system: SNB-75 CNS
SR leukemia = test system: SR leukemia
SW-620 colon = test system: SW-620 colon
T-47D breast = test system: T-47D breast
TK-10 renal = test system: TK-10 renal
U251 CNS = test system: U251 CNS
UACC-62 melanoma = test system: UACC-62 melanoma
UO-31 renal = test system: UO-31 renal
CCRF-CEM leukemia = test system: CCRF-CEM leukemia
HCT-116 colon = test system: HCT-116 colon
HL-60(TB) leukemia = test system: HL-60(TB) leukemia
HOP-92 NSCLC = test system: HOP-92 NSCLC
OVCAR-4 ovarian = test system: OVCAR-4 ovarian
UACC-257 melanoma = test system: UACC-257 melanoma

CC(NC(=O)C(CC(=O)OCc1ccccc1)NC(=O)OCc1ccccc1)c1ccccc1 (configuration not stated)
TGI (786-0 renal): > 100 µM | TGI (A549 NSCLC): > 100 µM | TGI (ACHN renal): > 100 µM | TGI (BT-549 breast): > 100 µM | TGI (CAKI-1 renal): > 100 µM | TGI (COLO 205 colon): > 100 µM | TGI (DU-145 prostate): > 100 µM | TGI (EKVX NSCLC): > 100 µM | TGI (HCC-2998 colon): > 100 µM | TGI (HCT-15 colon): > 100 µM | TGI (HOP-62 NSCLC): > 100 µM | TGI (HS 578T breast): > 100 µM | TGI (HT29 colon): > 100 µM | TGI (IGROV1 ovarian): > 100 µM | TGI (K-562 leukemia): > 100 µM | TGI (KM12 colon): > 100 µM | TGI (M14 melanoma): > 100 µM | TGI (MALME-3M melanoma): > 100 µM | TGI (MCF7 breast): > 100 µM | TGI (MDA-MB-231 breast): > 100 µM | TGI (MDA-MB-435): > 100 µM | TGI (MDA-N): > 100 µM | TGI (MOLT-4 leukemia): > 100 µM | TGI (NCI-H226 lung): > 100 µM | TGI (NCI-H23 lung): > 100 µM | TGI (NCI-H460 lung): > 100 µM | TGI (NCI-H522 lung): > 100 µM | TGI (NCI/ADR-RES ovarian): > 100 µM | TGI (OVCAR-3 ovarian): > 100 µM | TGI (OVCAR-5 ovarian): > 100 µM | TGI (OVCAR-8 ovarian): > 100 µM | TGI (PC-3 prostate): > 100 µM | TGI (RPMI-8226 leukemia): > 100 µM | TGI (RXF 393 renal): > 100 µM | TGI (SF-268 CNS): > 100 µM | TGI (SF-295 CNS): > 100 µM | TGI (SF-539 CNS): > 100 µM | TGI (SK-MEL-2 melanoma): > 100 µM | TGI (SK-MEL-28 melanoma): > 100 µM | TGI (SK-MEL-5 melanoma): > 100 µM | TGI (SK-OV-3 ovarian): > 100 µM | TGI (SN12C renal): > 100 µM | TGI (SNB-19 CNS): > 100 µM | TGI (SNB-75 CNS): > 100 µM | TGI (SR leukemia): > 100 µM | TGI (SW-620 colon): > 100 µM | TGI (T-47D breast): > 100 µM | TGI (TK-10 renal): > 100 µM | TGI (U251 CNS): > 100 µM | TGI (UACC-62 melanoma): > 100 µM | TGI (UO-31 renal): > 100 µM

CC(=O)Oc1ccc2c(c1OC(C)=O)CCC1C2=CC[C@]2(C)C(=O)CCC12 (some centres not stated)
TGI (A549 NSCLC): 33.7 µM | TGI (ACHN renal): 24.3 µM | TGI (BT-549 breast): 30.7 µM | TGI (CAKI-1 renal): 19 µM | TGI (CCRF-CEM leukemia): 12.9 µM | TGI (COLO 205 colon): 27.7 µM | TGI (DU-145 prostate): 30.1 µM | TGI (EKVX NSCLC): 30.1 µM | TGI (HCT-116 colon): 18.5 µM | TGI (HCT-15 colon): 23.5 µM | TGI (HL-60(TB) leukemia): 27.5 µM | TGI (HOP-62 NSCLC): 53.7 µM | TGI (HOP-92 NSCLC): 22.4 µM | TGI (HS 578T breast): 62.5 µM | TGI (HT29 colon): 32.9 µM | TGI (IGROV1 ovarian): 18.8 µM | TGI (K-562 leukemia): 39.5 µM | TGI (KM12 colon): 33.3 µM | TGI (M14 melanoma): 26.1 µM | TGI (MALME-3M melanoma): 28.6 µM | TGI (MCF7 breast): 31.2 µM | TGI (MDA-MB-231 breast): 28.3 µM | TGI (MDA-MB-435): 18.2 µM | TGI (MDA-N): 33.4 µM | TGI (MOLT-4 leukemia): 19.4 µM | TGI (NCI-H23 lung): 46.9 µM | TGI (NCI-H460 lung): 40.3 µM | TGI (NCI-H522 lung): 5.01 µM | TGI (NCI/ADR-RES ovarian): > 100 µM | TGI (OVCAR-3 ovarian): 6.2 µM | TGI (OVCAR-4 ovarian): 15.9 µM | TGI (OVCAR-5 ovarian): 30.3 µM | TGI (OVCAR-8 ovarian): 27.7 µM | TGI (PC-3 prostate): 17.3 µM | TGI (RPMI-8226 leukemia): 8.41 µM | TGI (SF-268 CNS): 27.9 µM | TGI (SF-295 CNS): 29.7 µM | TGI (SF-539 CNS): 29.1 µM | TGI (SK-MEL-2 melanoma): 29.5 µM | TGI (SK-MEL-28 melanoma): 21.3 µM | TGI (SK-MEL-5 melanoma): 1.55 µM | TGI (SK-OV-3 ovarian): 87.4 µM | TGI (SN12C renal): 28.1 µM | TGI (SNB-19 CNS): 32.8 µM | TGI (SR leukemia): 32.9 µM | TGI (SW-620 colon): 14.5 µM | TGI (T-47D breast): 37.6 µM | TGI (TK-10 renal): 27.7 µM | TGI (UACC-257 melanoma): 68.8 µM | TGI (UACC-62 melanoma): 25.5 µM | TGI (UO-31 renal): 21.7 µM
